In patent US12344598B2, “Bis(diazirine) derivatives as photo-crosslinker for treating corneal ectatic disorders” (Avedro, Inc., priority 2019, dated 2025):
Marks after values point to notes of the source that are not given here.

Assays:
cornea [1] = assay: Porcine Eye Corneal Stiffening Assay; details: UVA 9 mm circle, 365 nm, 30 mW/cm^2, CW, 8.1 min, 15 J, 21% O2, 37.0° C., untreated cornea = 10.1
Experimental: Porcine whole globes in saline at 4° C. were warmed to room temperature. The eyes were either immediately placed into custom movable eye holders in a horizontal position with the cornea facing upward or were first de-epithelialized with a dulled scalpel blade before being placed in the holder. The eye holders were then positioned inside an enclosed chamber that allows for the control of atmosphere, temperature and humidity (typically a water bath at 37.0° C.). A solution of test compound held in place by a small rubber O-ring on the center of the cornea is then allowed to soak into the cornea surface of the test eye. After a set soaking time (typically 10 minutes) the O-ring is removed and any excess test solution washed away with saline. A specific pattern of UVA light at 365 nm is administered to the test eye cornea over a desired dosing period. A corneal flap of desired thickness (typically 200 μm is then excised from the eyes using a femtosecond laser (Zeimer, LDV1). The corneal flap is placed in saline at ambient temperature for 20 minutes and then mounted onto a biaxial extensiometer (CellScale Biotester5000, Waterloo, ON), using biorake attachments (5 tines spanning a width of 3.5 mm). The corneal flap is stretched at a constant rate of 4 μm/s in saline at 37° C. until sample failure. The maximum slope of the force vs distance curve is calculated and compared to that obtained from an untreated cornea.
The following notes provide further clarification regarding certain steps in the assay: • (1) A solution of the test compound (typically 0.22% w/v in saline) is held in place by a small rubber O-ring on the center of the cornea is then allowed to soak into the cornea surface of the test eye. After a set soaking time of 5-30 minutes (typically 10 minutes) the O-ring is removed and any excess test solution washed away with saline. • (2) A corneal flap of desired thickness and diameter (typically 200 μm thick by 8 mm diameter) is then excised from the eyes using a femtosecond laser (Zeimer, LDV1). The corneal flap is either placed in saline at ambient temperature for 20 minutes and then mounted in saline onto a biaxial extensiometer (CellScale Biotester5000, Waterloo, ON) or mounted directly onto the tester in 5% Dextran T500/saline. • (3) Biorake attachments (5 tines spanning a width of 3.5 mm) are used to hold the flap as it is stretched at 37° C. and a constant rate of 4 μm/s in both X (5 N load cell) and Y (10 N load cell) directions simultaneously. • (4) The maximum slope of the force vs distance curve corresponds to the stiffening value. It is compared to that obtained from an untreated cornea.

cornea [2] = assay: Porcine Eye Corneal Flattening Assay; details: overall change in keratometry (Km) of central 3 mm zone; UVA 4 mm circle, 365 nm, 30 mW/cm^2, CW, 8.1 min, 15 J total dose, normal (21% O2) atmosphere, 37.0° C.
Experimental: Porcine whole globes in saline at 4° C. were warmed to room temperature. The corneas were then de-epithelialized with a dulled scalpel blade and the eyes placed into custom movable eye holders in a horizontal position with the cornea facing upward. The eye holders were then positioned inside an enclosed chamber that allows for the control of atmosphere, temperature and humidity (typically a water bath at 37.0° C.). IOP is maintained at a constant pressure by the insertion of a blood bank buffered saline line from an IV bag at a standard height inserted into each eye via a syringe needle. 5% Dextran T500 in blood bank buffered saline is dropped onto the surface of the cornea of each eye every 90 sec for 2 hours to allow the eyes to stabilize. […] The test eye is then orientated in a vertical position and the pre-treatment surface keratometry of the cornea measured using a Pentacam® HR device fine cornea 100 scan. […] After a further 1.5 hours during which the 5% dextran drops are resumed the eye is orientated back to the vertical position and the post-treatment surface keratometry of the cornea measured using a Pentacam® HR device fine cornea 100 scan as before. The difference map between the pre and post treatment corneal images is obtained and the overall change in keratometry (Km) of the central 3 mm zone recorded as a change in diopters. […]

[3] = maximum slope of force vs distance curve of corneal flap
[4] = eyes were not de-epithelialized prior to treatment

SMILES | Max slope (cornea [1]; [3]) | Max slope (cornea [1]; [4]) | Refractive Change (D) (cornea [2])
CC1(CCN(CCC2(C)N=N2)CC(=O)O)N=N1 [Example 13] | 12.38 | – | –
CC1(CCNCCC(=O)N[C@@H](CC(=O)O)C(=O)OCCC2(C)N=N2)N=N1 [Example 6] | – | 10.88^# | –
CC1(CCC(=O)N(CCC2(C)N=N2)[C@@H]2CCNC2)N=N1 [Example 23] | – | 10.68^# | –
CC1(CCNCC(=O)NCCC2(C)N=N2)N=N1 [Example 1] | 11.28 | – | −0.32 D
CC1(CCNCCC(=O)N[C@@H](CCCCNC(=N)N)C(=O)NCCC2(C)N=N2)N=N1 [Example 10] | – | 10.14^# | −0.64 D
CC1(CCC(=O)N(CCC2(C)N=N2)CC(=O)O)N=N1 [Example 14] | 10.66 | 10.5 | –
CC1(CCNCC(=O)N[C@@H](CC(=O)O)C(=O)NCCC2(C)N=N2)N=N1 [Example 17] | 10.13 | – | –
